What was measured:
Type in all cases: physicochemical, human
[1] = LC/MS of serum sample: number of times of freezing and thawing (Table M); design: key to Rate of increase or decrease: detection intensity relative to 1 at 2 freeze-thaw cycles; conditions: for Number of times when compound is affected / Increase or decrease: serum sample, LC/MS; for Number of times when compound is affected: detection intensity changed by 30% or more vs 2 times of freezing and thawing; for Increase or decrease: detection intensity vs 2 times of freezing and thawing
Method in brief: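 Values are detection intensities relative to serum thawed twice, versus 4, 6 or 10 freeze-thaw cycles. Serum came from blood spun at room temperature, 3500 rpm for 5 minutes. Analysis: electrospray LC/MS in MRM mode, Discovery HS F5-3 column, 40° C, 0.1% formic acid in water and acetonitrile.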

[2] = LC/MS of blood plasma sample: time from blood collection to cooling of blood (Table E); design: key to Rate of increase or decrease / Rate of increase or decrease (first value, increase): detection intensity relative to ≤1 min to cooling = 1; conditions: for Rate of increase or decrease: detection intensity relative to 1 at 1 minute or less, blood collection to cooling 5 minutes; for Increase or decrease: detection intensity, blood collection to cooling 5 minutes or more vs 1 minute or less
Method: At room temperature, 5 mL of blood from a healthy subject was taken into a blood-collecting vessel containing EDTA, and the blood-collecting vessel was inverted for mixing, then cooled, and allowed to stand at 4° C. Here, in order to investigate how the detection intensity of molecules contained in the sample was affected in a case where the time to cooling was set to 5 minutes or more as compared to that in a case where the time to cooling was set to 1 minute or less, preparations were performed under both the former condition and the latter condition. After standing, the blood sample was subjected to centrifugation under a condition of 4° C., 3000 rpm, and 15 minutes. […] After centrifugation, the blood-collecting vessel was left to stand at room temperature for 30 minutes, and the blood plasma was isolated during this 30 minutes. The obtained blood plasma sample was frozen and stored. Here, in order to investigate how the detection intensity of molecules contained in the sample was affected in cases where freezing and thawing was performed 4 times, 6 times, and 10 times after freezing as compared to that in a case where freezing and thawing was performed 2 times after freezing, freezing and thawing was performed under the respective conditions of 2, 4, 6, and 10 times.
(§1) Frozen blood plasma samples and serum samples were subjected to GC/MS or LC/MS. In GC/MS, the blood plasma samples and serum samples were subjected to methoxymation and trimethylsilylation and then introduced to GC-MS.
(§2) Analysis column: Discovery HS F5-3 (inner diameter of 2.1 mm, length of 150 mm, film thickness of 3 μm) (Sigma-Aldrich)
(§3) Column temperature: 40° C.
(§4) (A) 0.1% formic acid (dissolved in water)
(§5) (B) 0.1% formic acid (dissolved in acetonitrile)
(§6) Flow velocity: 0.25 mL/min
(§7) Ionization method: electrospray
(§8) Temperature: • Desolvation Line (DL) temperature: 250° C. • Heat block temperature: 400° C. • Interface temperature: 300° C.
(§9) Gas flow rate: • Nebulizer gas flow rate: 3.0 L/min • Drying gas flow rate: 10.0 L/min • Heating gas flow rate: 10.0 L/min
(§10) Mode: multiple reaction monitoring (MRM)
The rate of increase or decrease in Table E is the value of detection intensity relative to 1 that is the detection intensity in a case where the time from blood collection to cooling is set to 1 minute or less.

[3] = LC/MS of serum sample: time from centrifugation to isolation (Table K); design: key to Rate of increase or decrease: detection intensity relative to the 30-minute value set as 1; conditions: for Rate of increase or decrease: detection intensity relative to 1 at 30 minutes; for Increase or decrease / Time when compound is affected: serum sample, LC/MS; for Increase or decrease: detection intensity vs 30 minutes from centrifugation to isolation; for Time when compound is affected: time from centrifugation to isolation, detection intensity changed by 30% or more vs 30 minutes
Method: After standing, the blood sample was subjected to centrifugation under a condition of room temperature, 3500 rpm, and 5 minutes. […] After centrifugation, the blood-collecting vessel was left to stand at room temperature, and the serum was isolated during this time. Here, in order to investigate how the detection intensity of molecules contained in the sample was affected in cases where the time during which the blood-collecting vessel was left at room temperature was set to 1 hour and 6 hours as compared to that in a case where the time was set to 30 minutes, preparations were performed under the respective conditions of 30 minutes, 1 hour, and 6 hours. The obtained serum sample was frozen and stored. Here, in order to investigate how the detection intensity of molecules contained in the sample was affected in cases where freezing and thawing was performed 4 times, 6 times, and 10 times after freezing as compared to that in a case where freezing and thawing was performed 2 times after freezing, freezing and thawing was performed under the respective conditions of 2, 4, 6, and 10 times.
as §1, §2, §3, §4, §5, §6, §7, §8, §9, §10
The rate of increase or decrease in Table K is the value of detection intensity relative to 1 that is the detection intensity in a case where the time from centrifugation to isolation is set to 30 minutes.

[4] = LC/MS of blood plasma sample: number of times of freezing and thawing (Table F); conditions: for Rate of increase or decrease: detection intensity relative to 1 at 2 times; for Increase or decrease: detection intensity
Method in brief: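 Values are detection intensities normalised to 1 for plasma thawed twice, compared against 4, 6 and 10 freeze-thaw cycles. Measured by electrospray LC/MS in MRM mode, formic acid water/acetonitrile mobile phase, column at 40° C. Plasma came from EDTA blood, cooled to 4° C and spun at 3000 rpm for 15 min.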

[5] = LC/MS of blood plasma sample: time from blood collection to centrifugation (Table D); conditions: for Rate of increase or decrease: detection intensity relative to 1 at 15 minutes; for Rate of increase or decrease / Increase or decrease: blood collection to centrifugation; for Increase or decrease: detection intensity
Method in brief: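 Detection intensities are expressed relative to samples centrifuged 15 min after collection (=1), measured by electrospray LC/MS in MRM mode (Discovery HS F5-3, 40 °C, formic acid water/acetonitrile gradient at 0.25 mL/min). EDTA blood from a healthy donor was held at 4 °C, centrifuged at 4 °C, 3000 rpm, 15 min, and plasma frozen.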

[6] = GC/MS of blood plasma sample: number of times of freezing and thawing (Table C)
Method in brief: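 Values express detection intensity as a ratio to the 2-cycle freeze-thaw sample (=1), compared with 4, 6 and 10 cycles. Healthy-donor EDTA plasma, cooled at ≤1 min or ≥5 min, spun at 4 °C, 3000 rpm, 15 min. Derivatised by methoxymation/trimethylsilylation; GC-MS/MS in MRM mode with electron ionization.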

[7] = GC/MS of blood plasma sample: time from blood collection to centrifugation (Table A); conditions: blood collection to centrifugation
Method in brief: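 Read-out is MRM detection intensity by electron-ionization GC/MS on a BPX5 column after methoxymation and trimethylsilylation, expressed relative to a 15-minute collection-to-centrifugation interval. Plasma was prepared from EDTA blood held at 4° C and spun at 4° C, 3000 rpm for 15 minutes, then frozen.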

[8] = LC/MS of serum sample: time from blood collection to centrifugation (Table J); conditions: for Rate of increase or decrease: after 4 hours from blood collection to centrifugation, detection intensity relative to 1 at 15 minutes; for Increase or decrease / Time when compound is affected: serum sample, LC/MS; for Increase or decrease: detection intensity vs 15 minutes from blood collection to centrifugation; for Time when compound is affected: time from blood collection to centrifugation, detection intensity changed by 30% or more vs 15 minutes
Method in brief: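 Detection intensities are expressed relative to 1 for samples centrifuged 15 min after blood collection; centrifugation was at room temperature, 3500 rpm, 5 min. Frozen serum was run by electrospray LC-MS in MRM mode, with 0.1% formic acid water/acetonitrile at 0.25 mL/min on a 40 °C F5 column.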

[9] = freezing and thawing 4 times vs 2 times
[10] = 6 times of freezing and thawing, detection intensity relative to 1 at 2 times
[11] = freezing and thawing 10 times vs 2 times
[12] = 6 times of freezing and thawing, relative to 1 at 2 times, different from individual to individual, first value (increase)
[13] = 6 times of freezing and thawing, relative to 1 at 2 times, different from individual to individual, second value (decrease)

SMILES | Number of times when compound is affected [1] [times] | Increase or decrease [1] | Rate of increase or decrease [2] | Increase or decrease [2] | Increase or decrease [3] | Time when compound is affected [3] | Rate of increase or decrease ([4]; freezing and thawing 4 times) | Increase or decrease [4, 9] | Rate of increase or decrease [1, 10] | Rate of increase or decrease ([4]; freezing and thawing 10 times) | Increase or decrease [4, 11] | Increase or decrease ([5]; after 12 hours vs 15 minutes) | Rate of increase or decrease [1, 12] | Rate of increase or decrease [1, 13] | Rate of increase or decrease [8] | Increase or decrease [8] | Time when compound is affected [8] | Rate of increase or decrease ([5]; after 4 hours) | Increase or decrease ([5]; after 4 hours vs 15 minutes) | also measured
Nc1ncnc2nc[nH]c12 [Adenine] | 4 | Decrease | 1.31 | Increase | Decrease | After 1 hour hours | 1.37 | Increase |  |  |  |  |  |  |  |  |  |  |  | Rate of increase or decrease ([1]; 4 times of freezing and thawing, detection intensity relative to 1 at 2 times): 0.57; Rate of increase or decrease ([3]; after 1 hour from centrifugation to isolation): 0.39; Rate of increase or decrease ([5]; after 6 hours): 0.63; Increase or decrease ([5]; after 6 hours vs 15 minutes): Decrease
C[C@H](CCC(=O)O)[C@H]1CC[C@H]2[C@@H]3[C@H](O)C[C@@H]4C[C@H](O)CC[C@]4(C)[C@H]3C[C@H](O)[C@]12C [Cholic acid] | 6 | Decrease | 1.36 | Increase |  |  |  |  | 0.57 | 3.26 | Increase | Increase |  |  |  |  |  |  |  | Rate of increase or decrease ([5]; after 12 hours): 1.99
CN(C)CC(=O)O [Dimethylglycine] | 6 | Different from individual | 0.66 | Decrease |  |  |  |  |  | 1.37 | Increase | Different from individual | 1.34 | 0.61 |  |  |  |  |  | Rate of increase or decrease ([6]; detection intensity relative to 1 at 2 times, freezing and thawing 10 times): 1.34; Increase or decrease ([6]; detection intensity, freezing and thawing 10 times vs 2 times): Increase; Rate of increase or decrease ([7]; detection intensity relative to 1 at 15 minutes, after 12 hours): 1.41; Increase or decrease ([7]; detection intensity, after 12 hours vs 15 minutes): Increase; Rate of increase or decrease (second value, decrease) ([5]; different from individual to individual, individuals with decrease, relative to 1 at 15 minutes, collection to centrifugation, after 12 hours): 0.63; Rate of increase or decrease (first value, increase) ([5]; different from individual to individual, individuals with increase, relative to 1 at 15 minutes, collection to centrifugation, after 12 hours): 1.57
N[C@@H](Cc1ccc(O)c(O)c1)C(=O)O [Dopa] | 6 | Different from individual | 2.30 | Increase |  |  | 0.95 | Decrease |  |  |  |  | 1.30 | 0.31 | 0.56 | Decrease | After 4 hours | 2.57 | Increase | 
NC(=O)c1cccnc1 [Nicotinamide] | 6 | Decrease | 1.40 | Increase |  |  |  |  | 0.69 |  |  |  |  |  | 2.16 | Increase | After 4 hours | 1.44 | Increase | Increase or decrease ([4]; freezing and thawing 6 times vs 2 times): Increase
O=C(O)[C@@H]1CCCN1 [Proline] | 10 | Decrease | 1.41 | Increase | Increase | After 6 hours |  |  |  |  |  |  |  |  |  | Increase | After 12 hours | 2.20 | Increase | Rate of increase or decrease ([1]; 10 times of freezing and thawing, detection intensity relative to 1 at 2 times): 0.59; Rate of increase or decrease ([3]; after 6 hours from centrifugation to isolation): 2.35

Reference: patent US20220146526A1, “METHOD FOR EVALUATING SAMPLE, ANALYSIS METHOD, METHOD FOR DETECTING DEGRADED SAMPLE, MARKER FOR DETECTING DEGRADED BLOOD PLASMA SAMPLE, AND MARKER FOR DETECTING DEGRADED SERUM SAMPLE” (SHIMADZU CORPORATION, priority 2019, published 2022)
